Read-outs that look alike come from different tables or passages of the source.
Columns and labels:
TNF a = test: LPS stimulation of human PBMs, TNF a by ELISA; assay type: cell-based; details: LPS-stimulated human PBMs, TNF cell assay; read-out: Human PBM Assay IC50
Procedure: Human whole blood was collected in Vacutainer tubes containing EDTA as an anticoagulant. A blood sample (7 ml) was carefully layered over 5 ml PMN Cell Isolation Medium (Robbins Scientific) in a 15 ml round bottom centrifuge tube. The sample was centrifuged at 450-500×g for 30-35 minutes in a swing out rotor at room temperature. After centrifugation, the top band of cells were removed and washed 3 times with PBS w/o calcium or magnesium. The cells were centrifuged at 400×g for 10 minutes at room temperature. The cells were resuspended in Macrophage Serum Free Medium (Gibco BRL) at a concentration of 2 million cells/ml.
Compounds were dissolved in DMSO initially and diluted in TCM for a final-concentration of 0.1% DMSO. LPS (Calbiochem, 20 ng/ml, final concentration) was then added at a volume of 0.010 ml. Cultures were incubated overnight at 37° C. Supernatants were then removed and tested by ELISA for TNF a and IL1-b. Viability was analyzed using MTS. After 0.1 ml supernatant was collected, 0.0,20 ml MTS was added to remaining 0.1 ml cells.

TNF-α = test: LPS stimulation of TNF production by U937 cells; assay type: cell-based, human; details: Homo sapiens, U-937, LPS-stimulated U937 cells
Method in brief: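 PMA-differentiated human U937 cells (20 ng/ml PMA, 24 h, then 24-48 h rest) at 2 million cells/ml, 0.1% DMSO final, stimulated with E. coli LPS (100 ng/ml final) for 4 h at 37° C. TNF-α in medium measured by ELISA; IC50 in μM.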

[1] = target: T1, human GST-p38 kinase alpha (Homo sapiens, UniProt Q16539); test: p38 kinase in vitro assay, second format, phosphorylation of EGFRP with 33P-ATP; assay type: biochemical; details: p38α in vitro, EGFRP assay procedure; read-out: p38^2 IC50
T1 construct: The coding region of the human p38a cDNA was obtained by PCR-amplification from RNA isolated from the human monocyte cell line THP.1; made in house; host or cells: E. coli DH10B
T1 sequence (Q16539 whole entry): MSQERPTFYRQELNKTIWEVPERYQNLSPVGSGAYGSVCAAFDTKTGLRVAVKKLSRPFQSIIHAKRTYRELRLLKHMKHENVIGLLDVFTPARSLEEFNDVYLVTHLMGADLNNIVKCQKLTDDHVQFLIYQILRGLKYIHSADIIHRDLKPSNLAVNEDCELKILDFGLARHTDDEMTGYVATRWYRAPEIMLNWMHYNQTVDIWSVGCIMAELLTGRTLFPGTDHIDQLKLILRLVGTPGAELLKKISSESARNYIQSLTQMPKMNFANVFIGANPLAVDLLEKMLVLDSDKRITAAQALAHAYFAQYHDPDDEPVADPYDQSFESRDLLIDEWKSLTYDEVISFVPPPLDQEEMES
Method in brief: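 Activated human GST-p38α (pre-activated with GST-MKK6, 1 h, 30 °C) phosphorylates EGFR 21-mer peptide (200 μM) with 50 μM ATP plus γ-33P-ATP, pH 7.5, 60 min at room temperature. Unreacted ATP removed by AG 1×8 resin; supernatant scintillation-counted.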

TNF alpha = test: Mouse model of LPS-induced TNF alpha production; assay type: in vivo; details: mouse, oral, 1h before LPS, 30 mpk; read-out: mLPS 1h, 30 mpk percent inhibition
Procedure: TNF alpha was induced in 10-12 week old BALB/c female mice by tail vein injection with 100 ng lipopolysaccharide (from S. Typhosa) in 0.2 ml saline. One hour later mice were bled from the retroorbital sinus and TNF concentrations in serum from clotted blood were quantified by ELISA.
Efficacy was determined at each time point as percent inhibition of serum TNF levels relative to LPS injected mice that received vehicle only
wherein in the dose is milligram per kilogram (mpk) administered by oral gavage and the predose time indicates the number of hours before LPS challenge when the compound is administered.

human p38 kinase alpha = target: T2, human p38 kinase alpha (Homo sapiens, UniProt Q16539); test: p38 kinase in vitro assay, phosphorylation of biotinylated PHAS-I with gamma 32P-ATP; assay type: biochemical
T2 construct: The coding region of the human p38a cDNA was obtained by PCR-amplification from RNA isolated from the human monocyte cell line THP.1; GST (N); made in house; host or cells: E. coli DH10B
T2 sequence (Q16539 whole entry): as above
Method in brief: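 Radiometric filter-capture read-out: streptavidin plates trap biotin-PHAS-I labelled by activated (MKK6) human p38α from γ-32P-ATP. Buffer 25 mM HEPES pH 7.5, 10 mM magnesium acetate, 50 μM cold ATP; reactions 1 h or overnight at 30 °C; inhibitors 10-fold dilutions 100 to 0.001 μM, triplicates, 1% DMSO.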

[2] = p38α in vitro, PHAS-I assay procedure, read-out: p38^1 IC50
[3] = activated human p38 kinase alpha, PHAS-I substrate, 50 μM unlabeled ATP, read-out: p38 kinase IC50

| Structure (SMILES) | IC50 (TNF a) [nM] | IC50 [1] [nM] | IC50 (TNF-α; read-out: U937 IC50) [nM] | inhibition in vivo at 30 mg/kg (TNF alpha) [%] | further results |
| --- | --- | --- | --- | --- | --- |
| Cc1n[nH]c(-c2ccc3c(c2)OCO3)c1-c1ccncc1 [Example A-10, 4-[5-(1,3-benzodioxol-5-yl)-3-methyl-1H-pyrazol-4-yl]pyridine] | 700 |  |  |  | IC50 (TNF-α; read-out: U937 Cell Assay IC50): 1690 nM |
| N#Cc1cc(-c2c[nH]nc2-c2ccc(F)cc2)ccn1 [Example A-215, 4-[3-(4-fluorophenyl)-1H-pyrazol-4-yl]-2-pyridinecarbonitrile] |  | 2340 | 298 | 80 | melting point: 209.22 °C |
| Cc1n[nH]c(-c2cccc(O)c2)c1-c1ccncc1 [Example A-17, 3-[3-methyl-4-(4-pyridinyl)-1H-pyrazol-4-yl]phenol] | 1100 |  |  |  |  |
| Fc1ccc(-c2n[nH]cc2-c2ccnc(NC3CCN(Cc4ccccc4)CC3)c2)cc1 [Example A-263, 4-[3-(4-fluorophenyl)-1H-pyrazol-4-yl]-N-[1-(phenylmethyl)-4-piperidinyl]-2-pyridinamine] |  | < 100 | 543 | 49 | IC50 (human p38 kinase alpha; [2]): < 10 nM |
| Cc1[nH]nc(-c2ccc(F)cc2)c1-c1ccncc1 [Example 4, 4-[3-(4-fluorophenyl)-5-methyl-1H-pyrazol-4-yl)pyridine] | 100 |  |  |  | IC50 (TNF-α; read-out: U937 Cell Assay IC50): 222 nM |
| Cc1cccc(-c2[nH]nc(C)c2-c2ccncc2)c1 [Example A-8] | < 100 |  |  |  | IC50 (human p38 kinase alpha; [3]): < 100 nM |
| Cc1cccc(-c2[nH]nc(C(F)(F)F)c2-c2ccncc2)c1 [Example A-22, 4-[5-(3-methylphenyl)-3-(trifluoromethyl)-1H-pyrazol-4-yl]pyridine] | 3200 |  |  |  | melting point: 237 to 239 °C |
| Cn1nc(-c2ccc(F)cc2)c(-c2ccncc2)c1Br [Example A-214, 4-[5-bromo-3-(4-fluorophenyl)-1-methyl-1H-pyrazol-4-yl]pyridine] |  | 60 |  | 70 | melting point: 174.38 °C |
| CN(C)c1n[nH]c(-c2ccc(F)cc2)c1-c1ccncc1 [Example A-19, 5-(4-fluorophenyl)-N, N-dimethyl-4-(4-pyridinyl)-1H-pyrazol-3-amine] | 300 |  |  |  | IC50 (TNF-α; read-out: U937 Cell Assay IC50): 484 nM; melting point: 245 to 247 °C |
| Cc1ccc(C)c(-c2[nH]nc(C)c2-c2ccncc2)c1 [Example A-9] | 400 |  |  |  |  |
| Cc1n[nH]c(-c2ccc(-c3ccccc3)cc2)c1-c1ccncc1 [Example A-12, 4-[5-[(1,1′-biphenyl)-4-yl]-3-methyl-1H-pyrazol-4-yl]pyridine] | 8500 |  |  |  |  |
| COc1ccc(-c2[nH]nc(C)c2-c2ccncc2)cc1F [Example A-1, 4-[5-(3-fluoro-4-methoxyphenyl)-3-methyl-1H-pyrazol-4-yl]pyridine] | 500 |  |  |  | IC50 (human p38 kinase alpha; [3]): 4600 nM |
| Cc1n[nH]c(-c2cccc(Oc3ccccc3)c2)c1-c1ccncc1 [Example A-13] | 4800 |  |  |  |  |
| c1cc(-c2c[nH]nc2-c2ccc3c(c2)OCO3)ccn1 [Example A-228, 4-[3-(1,3-benzodioxol-5-yl)-1H-pyrazol-4-yl]pyridine] |  | 339 | 417 | 92 | IC50 (human p38 kinase alpha; [2]): 760 nM |
| Cc1n[nH]c(-c2cccc(OCc3ccccc3)c2)c1-c1ccncc1 [Example A-14, 4-[3-methyl-5-[3-(phenylmethoxy)phenyl]-1H-pyrazol-4-yl]pyridine] | 1200 |  |  |  |  |
| Cc1n[nH]c(-c2ccccc2)c1-c1ccncc1 [Example A-2, 4-(3-methyl-5-phenyl-1H-pyrazol-4-yl)pyridine] | 1600 |  |  |  | IC50 (human p38 kinase alpha; [3]): 1500 nM; IC50 (TNF-α; read-out: U937 Cell Assay IC50): 578 nM; melting point: 212 to 214 °C |
| Cn1cc(-c2ccncc2)c(-c2ccc(F)cc2)n1 [Example A-212, 4-[3-(4-fluorophenyl)-1-methyl-1H-pyrazol-4-yl]pyridine] |  | 740 | 96.7 | 93 | IC50 (human p38 kinase alpha; [2]): 490 nM |
| OCCn1cc(-c2ccnc(F)c2)c(-c2ccc(F)cc2)n1 [Example A-267, 3-(4-fluorophenyl)-4-(2-fluoro-4-pyridinyl)-1H-pyrazole-1-ethanol] |  | 430 | 2670 | 80 |  |
| Cn1cc(-c2ccnc(CCc3ccc(F)cc3)c2)c(-c2ccc(F)cc2)n1 [Example A-262, 2-[2-(4-fluorophenyl)ethyl]-4-[3-(4-fluorophenyl)-1-methyl-1H-pyrazol-4-yl]pyridine] |  | < 100 | 327 | 45 |  |
| Cc1n[nH]c(C2CCCCC2)c1-c1ccncc1 [Example A-24] | 8200 |  |  |  |  |
| CN(C)CCn1cc(-c2ccnc(F)c2)c(-c2ccc(F)cc2)n1 [Example A-271, 3-(4-fluorophenyl)-4-(2-fluoro-4-pyridinyl)-N,N-dimethyl-1H-pyrazole-1-ethanamine] |  | 216 | 4210 | 68 |  |
| CCc1[nH]nc(-c2cccc(C)c2)c1-c1ccncc1 [Example A-45] | < 100 |  |  |  | IC50 (human p38 kinase alpha; [3]): < 100 nM |
| Cc1n[nH]c(-c2ccc(Cl)cc2)c1-c1ccncc1 [Example A-7, 4-(3-(4-chlorophenyl)-5-methyl-1H-pyrazol-4-yl)pyridine] | 200 |  |  |  | IC50 (TNF-α; read-out: U937 Cell Assay IC50): 201 nM |
| Fc1ccc(-c2nn(CCN3CCOCC3)cc2-c2ccncc2)cc1 [Example A-216, 4-[2-[3-(4-fluorophenyl)-4-(4-pyridinyl)-1H-pyrazol-1-yl]ethyl)morpholine] |  | 18 | 1830 | 91 |  |
